# Reference: patent US8871751B2, “Compositions and methods relating to nuclear hormone and steroid hormone receptors including inhibitors of estrogen receptor alpha-mediated gene expression and inhibition of breast cancer” (The Board of Trustees of the University of Illinois, priority 2008, dated 2014)
# Key:
# [1] = biological target: T1, human ERα binding to flcERE (Homo sapiens, UniProt P03372); assay: FAMA: inhibition of ERα binding to flcERE; settings: FAMA, binding to HRE, 5 concentrations 0.5-10 μM, sequential method; read-out: IC50 ERα
# T1 construct: Full-length FLAG-tagged human ERα was expressed and purified as described previously (27); FLAG; made in house
# T1 sequence (P03372 1-595): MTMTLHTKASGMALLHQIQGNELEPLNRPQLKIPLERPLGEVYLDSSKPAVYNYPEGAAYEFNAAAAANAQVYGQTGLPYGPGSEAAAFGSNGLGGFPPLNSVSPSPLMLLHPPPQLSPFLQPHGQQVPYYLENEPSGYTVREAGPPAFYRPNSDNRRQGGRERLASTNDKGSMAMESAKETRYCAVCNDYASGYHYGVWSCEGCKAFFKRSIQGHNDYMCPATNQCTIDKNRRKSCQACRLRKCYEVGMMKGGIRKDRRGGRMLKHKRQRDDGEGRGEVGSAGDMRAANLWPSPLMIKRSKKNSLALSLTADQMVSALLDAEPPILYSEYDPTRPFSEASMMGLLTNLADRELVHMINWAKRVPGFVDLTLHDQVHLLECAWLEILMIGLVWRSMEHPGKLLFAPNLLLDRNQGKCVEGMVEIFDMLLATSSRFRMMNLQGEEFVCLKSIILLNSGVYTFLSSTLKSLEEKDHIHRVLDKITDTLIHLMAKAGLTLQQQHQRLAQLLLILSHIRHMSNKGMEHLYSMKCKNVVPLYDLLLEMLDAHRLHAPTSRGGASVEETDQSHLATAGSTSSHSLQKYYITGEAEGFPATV
# Experimental: Prior to screening, the 10 mM library stocks were diluted to produce replica libraries in 384-well plates containing each small molecule at 0.25 mM (in DMSO). In our initial studies we were concerned that forming the flcERE-ERα complex first and then adding the candidate small molecule inhibitors would miss small molecules that bind at the interface. We therefore screened using the “sequential” method in which the candidate small molecules were first incubated with ERα and followed by addition of the flcERE. The assay for binding of ERα to the flcERE is a modification of our earlier assay (27). Assays were carried out at room temperature in black wall 384-well microplates (Greiner/Bio-One) in a total volume of 10 μl in buffer containing 20 mM Tris pH 7.5, 10% glycerol, 0.2 mM EDTA, 2 mM DTT, 100 mM KCl, 0.5 ng/μl poly dl:dC, […] bovine serum albumin and 100 nM 17β-estradiol (E2). For high throughput screening, a master mix without ERα and probe was prepared at 4° C. The master mix was divided into 2 parts. ERα was added to one part to 5 nM in the final assays. 7 μl of the ERα-containing mix was then dispensed into each well of a 384-well plate on ice. 100 nl of the compounds being tested was then added using a pin-transporter (V & P Scientific, Inc, CA) to a final concentration of 2.5 μM. The samples were mixed using the pin-transporter and sedimented by centrifugation for 2 min. at 4° C. and incubated on ice for 10 min. The flcERE probe was added to the other aliquot of the mix to 1 nM. 3 μl of the mix containing the flcERE probe was added to each well containing ERα and the test compound. The samples were mixed using the pin-transporter, the plates were briefly centrifuged and incubated at room temperature for 10 min. and fluorescence anisotropy (FA) was measured using a BMG PheraStar (BMG Labtech) microplate reader (module: 485 520) with excitation at 485λ and emission at 520λ. To identify small molecules that were highly fluorescent, or quench fluorescence, fluorescence intensity was also measured.
# (§1) Dose response curves for selected compounds were carried out as described for the HTS screen except that each well contained the indicated concentration of test compound. PR assays were carried out in the same buffer used for ERα assays and contained 1 nM flcPRE and 11 nM PR-B and 100 nM progesterone. The buffer used for AR was similar but also contained 5 μM ZnCl, 5 mM NaF, 0.6 μM CHAPS and 100 nM dihydrotestosterone. AR assays contained 1 nM flcARE and 50 nM full-length wild-type AR.
# [2] = biological target: T2, human androgen receptor (AR) binding to flARE (Homo sapiens, UniProt P10275); assay: FAMA: inhibition of AR binding to flcARE; settings: binding to HRE, 5 concentrations 0.5-10 μM, sequential method
# T2 construct: AR assays contained 1 nM flcARE and 50 nM full-length wild-type AR; FLAG; made in house
# T2 sequence (P10275 1-920): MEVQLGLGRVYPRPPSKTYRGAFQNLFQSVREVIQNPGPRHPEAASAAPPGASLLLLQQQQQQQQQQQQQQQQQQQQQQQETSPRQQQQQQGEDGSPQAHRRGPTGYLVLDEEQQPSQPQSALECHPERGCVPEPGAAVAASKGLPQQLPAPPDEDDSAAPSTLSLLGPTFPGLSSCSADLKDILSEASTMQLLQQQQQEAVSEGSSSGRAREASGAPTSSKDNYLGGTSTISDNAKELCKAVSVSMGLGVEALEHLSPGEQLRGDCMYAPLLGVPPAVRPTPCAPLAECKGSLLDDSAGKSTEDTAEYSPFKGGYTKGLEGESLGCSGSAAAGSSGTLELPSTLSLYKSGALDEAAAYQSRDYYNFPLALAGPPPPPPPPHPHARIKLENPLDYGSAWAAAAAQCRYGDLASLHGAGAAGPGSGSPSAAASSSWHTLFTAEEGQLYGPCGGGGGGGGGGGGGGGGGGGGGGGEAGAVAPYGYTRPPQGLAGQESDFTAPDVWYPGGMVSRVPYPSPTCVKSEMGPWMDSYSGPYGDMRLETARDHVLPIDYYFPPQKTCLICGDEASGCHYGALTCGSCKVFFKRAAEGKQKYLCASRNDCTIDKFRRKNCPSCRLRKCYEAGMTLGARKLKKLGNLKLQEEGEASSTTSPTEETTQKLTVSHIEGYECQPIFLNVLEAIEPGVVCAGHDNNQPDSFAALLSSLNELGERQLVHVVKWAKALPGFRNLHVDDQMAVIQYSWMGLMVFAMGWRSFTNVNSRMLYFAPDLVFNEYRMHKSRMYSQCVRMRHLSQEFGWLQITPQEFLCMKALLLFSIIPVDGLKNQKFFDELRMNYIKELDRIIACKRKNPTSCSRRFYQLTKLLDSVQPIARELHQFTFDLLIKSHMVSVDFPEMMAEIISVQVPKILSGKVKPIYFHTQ
# Experimental: as §1
# (§2) Specificity was evaluated in dose-response studies by quantitative FAMA using purified full-length human PR binding to a fluorescein-labeled progesterone/glucocorticoid response element (flPRE) and full-length human androgen receptor (AR) binding to a fluorescein-labeled androgen response element (flARE).
# [3] = biological target: T3, human PR-B binding to flPRE (Homo sapiens, UniProt P06401); assay: FAMA: inhibition of PR binding to flcPRE; settings: binding to HRE, 5 concentrations 0.5-10 μM, sequential method
# T3 construct: FLAG; made in house
# T3 sequence (P06401 1-933): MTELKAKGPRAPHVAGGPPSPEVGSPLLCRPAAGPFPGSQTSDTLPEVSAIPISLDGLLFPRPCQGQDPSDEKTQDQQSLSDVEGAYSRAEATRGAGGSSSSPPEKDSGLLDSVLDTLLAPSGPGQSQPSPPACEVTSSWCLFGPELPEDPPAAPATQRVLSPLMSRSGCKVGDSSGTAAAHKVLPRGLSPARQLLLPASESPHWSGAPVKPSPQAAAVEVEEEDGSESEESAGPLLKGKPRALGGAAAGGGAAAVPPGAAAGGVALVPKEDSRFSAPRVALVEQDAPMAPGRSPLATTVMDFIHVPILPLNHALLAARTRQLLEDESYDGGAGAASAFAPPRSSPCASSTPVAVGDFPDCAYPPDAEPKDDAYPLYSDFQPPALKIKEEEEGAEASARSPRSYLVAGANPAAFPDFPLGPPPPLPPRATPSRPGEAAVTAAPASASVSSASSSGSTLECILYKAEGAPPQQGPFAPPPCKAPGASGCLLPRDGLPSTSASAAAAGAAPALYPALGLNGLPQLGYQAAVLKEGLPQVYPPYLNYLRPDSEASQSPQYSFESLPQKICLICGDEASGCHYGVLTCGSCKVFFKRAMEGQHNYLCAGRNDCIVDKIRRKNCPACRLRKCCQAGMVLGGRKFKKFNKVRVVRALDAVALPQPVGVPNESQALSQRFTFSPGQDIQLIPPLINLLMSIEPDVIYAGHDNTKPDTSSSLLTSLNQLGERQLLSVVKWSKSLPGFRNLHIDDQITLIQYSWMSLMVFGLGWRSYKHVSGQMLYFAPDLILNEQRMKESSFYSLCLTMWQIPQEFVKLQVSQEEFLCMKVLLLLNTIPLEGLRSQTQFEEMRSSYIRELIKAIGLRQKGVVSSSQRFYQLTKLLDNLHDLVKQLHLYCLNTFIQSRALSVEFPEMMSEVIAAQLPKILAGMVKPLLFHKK
# Experimental: as §1, §2
SMILES,IC50 [1],IC50 [2],IC50 [3]
CCc1c(O)c2c(c(O)c1C(C)=O)C(=O)c1c(cc(O)c(C(=O)O)c1C(=O)O)C2=O [Compound 170008],9 µM,9 µM,–
O=C(CCBr)OCCc1ccccc1 [Compound 7122],5 µM,7.5 µM,–
O=C(Nc1cc[c]([Sb](=[O])([OH])[OH])cc1)c1ccccc1 [Compound 15596],5 µM,> 10 µM,> 10 µM
CC(C)/C=N/Nc1ccc([N+](=O)[O-])cc1[N+](=O)[O-] [Compound 6122],5.8 µM,3.7 µM,5.3 µM
Nc1c(S(=O)(=O)O)cc(Nc2ccc(S(=O)(=O)O)c(Nc3nc(Cl)nc(Cl)n3)c2)c2c1C(=O)c1ccccc1C2=O [Compound 9545],0.7 µM,3 µM,3.8 µM
O=C(O)/C=C/c1ccc([N+](=O)[O-])cc1 [Compound 2067],5 µM,3 µM,–
CCCCCCCCCCCCCCCC[N+](C)(C)CCN(Cc1ccc(OC)cc1)c1ncccn1 [Compound 5648],6.5 µM,4.5 µM,7.3 µM
Nc1ccc(S(=O)(=O)c2ccc(NCN3C(=O)NC(=O)C(=O)C3=O)cc2)cc1 [Compound 34238],1.8 µM,–,> 10 µM
O=C(O)c1cccc(N=Nc2c(S(=O)(=O)O)ccc3c2C(=O)c2ccccc2C3=O)c1O [Compound 125908],3.8 µM,> 10 µM,> 10 µM
CN1CCc2[nH]nc(-c3n[nH]c4c3CN(C)CC4)c2C1 [Compound 371847],> 10 µM,> 10 µM,> 10 µM
CCCCC(C)O (stereo not shown) [Compound 3706],0.8 µM,1 µM,1.5 µM
O=C(O)/C=C/c1ccccc1Cl [Compound 4792],> 10 µM,7.5 µM,> 10 µM
CC1CCCCN1.CC1CCCCN1.[Cl][Cu][Cl] (stereo not shown) [Compound 1826],7 µM,8 µM,6 µM
N#CC(C#N)=CNCCN1CCN(C=C(C#N)C#N)CC1 [Compound 343040],> 10 µM,> 10 µM,> 10 µM
O=C(O)c1cccc2cccc(-c3cccc4cccc(C(=O)O)c34)c12 [Compound 7810],> 10 µM,> 10 µM,> 10 µM
CCCN(C(C)=O)c1ccccc1 [Compound 4700],2 µM,2 µM,2.7 µM
O=[N+]([O-])/C=C/c1ccco1 [Compound 5650],8 µM,5.5 µM,7.5 µM
CCC1CCC(C)NC1 (stereo not shown) [Compound 6119],9 µM,7.4 µM,9 µM
NNC(=O)OCc1ccccc1 [Compound 2287],2.1 µM,1.7 µM,2.7 µM
CCCCCCC1(c2cccnc2)NC(=O)NC1=O (stereo not shown) [Compound 9503],2.6 µM,> 10 µM,> 10 µM
CCOC(=O)C(CC)(C(=O)OCC)C(C)C [Compound 4695],2.5 µM,4.8 µM,4 µM
c1ccc(-c2oc(-c3ccccc3)c(CN3CCCCC3)c2CN2CCCCC2)cc1 [Compound 7473],9 µM,> 10 µM,> 10 µM
O=C(O)c1nn(-c2ccc(Cl)cc2)c2c1C(=O)c1ccccc1C2=O [Compound 360494],> 10 µM,> 10 µM,> 10 µM
CNc1ccccc1O [Compound 3879],3.7 µM,7.5 µM,6.5 µM
CCN(CC)CCOC(=O)c1cc(Br)cc(-c2ccccc2)c1O [Compound 7450],9.8 µM,> 10 µM,> 10 µM
CCCCCCCC(=O)OC [Compound 3710],2.5 µM,–,2.9 µM
CCCCCCCCCC(=O)OC [Compound 3713],–,–,7 µM
O=[N+]([O-])c1ccc(CO)o1 [Compound 6454],5.8 µM,> 10 µM,–
C=C(CC(=O)O)C(=O)O.C=CC(=O)O [Compound 146443],–,–,0.4 µM
CC(=O)N(C)c1ccc(N)cc1 [Compound 7107],5 µM,–,> 10 µM
